# Laboratory results: US6391863B1, “Use of carbohydrates for promoting skin desquamation” (L'Oreal, priority 1995, dated 2002)
# Tested on: Banderia simplicifolia isolectin B4
# Test: Inhibition of lectin-induced haemagglutination (model of corneocyte cohesion)
# Assay type: cell-based
# Conditions: rabbit erythrocytes; lectin at twice its minimum haemagglutinating concentration; carbohydrate starting solution 0.1M, successive dilutions; 30 min contact at ambient temperature
# Experimental: A test to measure the efficacy of the carbohydrates was carried out in vitro. […] The principle of the test lies in the fact that the lectin causes agglutination of the erythrocytes. The products to be tested, which are prepared at various dilutions, are added to the lectin solutions. The minimum concentration of product allowing the inhibition of haemagglutination caused by the lectin is measured. […] To carry out the tests, rabbit erythrocytes marketed by the company Biomérieux under the reference 72291 are employed. These erythrocytes are used in 50% suspension in water. The lectin used is Banderia simplicifolia isolectin B4, marketed by the company SYGMA. All the solutions are diluted in phosphate buffer containing calcium and magnesium. The lectin is dissolved in the phosphate buffer at a concentration of 1 mg/ml. 25 μl of phosphate buffer are distributed in all the wells of the microtitre plates. 25 μl of the lectin to be tested are added to the second well. After homogenization, 25 μl from this well are transferred into the following well and so on to obtain successive dilutions. The erythrocytes are diluted to 1/10^e (fresh solution) . 5 μl of the suspension and 5 μl of the contents of a well are placed on a plate. After mixing by rotation, it is observed whether or not there is haemagglutination. The latter develops in 5 min at the maximum. The minimum quantity of lectin is thus measured, which allows a clear erythrocyte haemagglutination to be obtained. After having measured the minimum quantity of lectin which allows a clear erythrocyte haemagglutination to be obtained, it is chosen to work at twice the concentration. 25 μl of phosphate buffer are placed in microtitre plates to carry out a negative control. In the other wells are distributed 25 μl of lectin at the determined concentration. In the second well are added 25 μl of phosphate buffer to obtain a positive control. In the third well are placed 25 μl of the carbohydrate derivative to be tested in solution at a concentration of 0.1M. After homogenization, 25 μl from this well are taken and placed in the following well and so on so as to obtain successive dilutions. After having left the lectin and the carbohydrate derivative in contact for 30 min at ambient temperature, 5 μl are placed on a plate and are mixed with 5 μl of erythrocyte suspension. It is observed whether or not there is haemagglutination after agitation by rotation. The lowest carbohydrate dilution allowing inhibition of haemagglutination to be observed is measured. The result is given as a fraction (corresponding to the dilution) of the initial concentration (0.1M).
row,Compound,"lowest carbohydrate dilution allowing inhibition of haemagglutination to be observed, given as a fraction (corresponding to the dilution) of the initial concentration (0.1M)"
1,"CC(=O)N[C@H]1C(O)O[C@H](CO)[C@@H](O)[C@@H]1O (stereo partly drawn) [N-acetyl-D-glucosamine, reference compound]",no inhibition observed
2,CCCCCCCCOC(=O)N(C)C[C@H](O)[C@@H](O)[C@H](O)[C@H](O)CO [N-octyloxycarbonyl-N-methyl-D-glucamine],1/64
3,"CCCCCCCC(=O)OC[C@H]1O[C@H](O[C@H]2[C@H](O)[C@@H](O)[C@H](O)O[C@@H]2CO)[C@H](O)[C@@H](O)[C@@H]1O [6′-O-octanoyl-D-maltose, 6′-O-octanoyl-β-D-maltose]",¼
4,N-2-ethylhexyloxy-carbonyl-N-methyl-D-glucamine,1/16
